According to PubChem BioAssay (NCI):
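Values below derive from 48-hour exposures of cells grown in 96-well plates, with endpoints linearly interpolated between the two concentrations bracketing the appropriate inhibition level. TGI denotes the concentration required for complete inhibition of growth.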

What was measured:
Assay in all cases: inhibition of tumour cell growth, NCI panel, 48 h
[1] = test system: TK-10 renal
[2] = test system: UACC-62 melanoma
[3] = test system: A498 renal
[4] = test system: SK-OV-3 ovarian
[5] = test system: BT-549 breast
[6] = test system: NCI-H226 lung
[7] = test system: HS 578T breast
[8] = test system: CAKI-1 renal
[9] = test system: SNB-75 CNS
[10] = test system: MDA-N
[11] = test system: ACHN renal
[12] = test system: SW-620 colon
[13] = test system: EKVX NSCLC
[14] = test system: NCI/ADR-RES ovarian
[15] = test system: SN12C renal
[16] = test system: HOP-62 NSCLC
[17] = test system: OVCAR-4 ovarian
[18] = test system: COLO 205 colon
[19] = test system: SNB-19 CNS
[20] = test system: PC-3 prostate
[21] = test system: HCT-15 colon
[22] = test system: RXF 393 renal
[23] = test system: UACC-257 melanoma
[24] = test system: OVCAR-3 ovarian
[25] = test system: K-562 leukemia
[26] = test system: KM12 colon
[27] = test system: SF-268 CNS
[28] = test system: NCI-H522 lung
[29] = test system: SK-MEL-28 melanoma
[30] = test system: MCF7 breast
[31] = test system: SK-MEL-5 melanoma
[32] = test system: OVCAR-5 ovarian
[33] = test system: MOLT-4 leukemia
[34] = test system: LOX IMVI melanoma
[35] = test system: U251 CNS
[36] = test system: HCT-116 colon
[37] = test system: M14 melanoma
[38] = test system: T-47D breast
[39] = test system: DU-145 prostate
[40] = test system: HCC-2998 colon
[41] = test system: CCRF-CEM leukemia
[42] = test system: NCI-H460 lung
[43] = test system: IGROV1 ovarian
[44] = test system: HL-60(TB) leukemia
[45] = test system: HT29 colon
[46] = test system: HOP-92 NSCLC
[47] = test system: A549 NSCLC
[48] = test system: SK-MEL-2 melanoma
[49] = test system: 786-0 renal
[50] = test system: MDA-MB-435
[51] = test system: RPMI-8226 leukemia
[52] = test system: SR leukemia
[53] = test system: OVCAR-8 ovarian
[54] = test system: MDA-MB-231 breast
[55] = test system: SF-295 CNS
[56] = test system: MALME-3M melanoma
[57] = test system: NCI-H23 lung
[58] = test system: UO-31 renal
[59] = test system: SF-539 CNS

How did the TGI [1] turn out when `CC(C)NC(=O)OCc1c(COC(=O)NC(C)C)n(C)c2c1ccc1ccsc12` was run?
Its TGI is > 94.4 µM.

What about the TGI [2] of the same compound?
Its TGI is 22.9 µM.

What about the TGI [3] of the same compound?
Its TGI is 35.3 µM.

And the TGI [4]?
Its TGI is 69.6 µM.

What about the TGI [5] of the same compound?
Its TGI is 28.4 µM.

What about the TGI [6] of the same compound?
The TGI was 28.7 µM.

What about the TGI [7] of the same compound?
The TGI was 48.5 µM.

And the TGI [8]?
Its TGI is 13.9 µM.

And the TGI [9]?
Its TGI is 26.9 µM.

And the TGI [10]?
The TGI was 26.1 µM.

What about the TGI [11] of the same compound?
The TGI was 14.2 µM.

And the TGI [12]?
Its TGI is > 45 µM.

What about the TGI [13] of the same compound?
The TGI was 48.1 µM.

What about the TGI [14] of the same compound?
Its TGI is 31.4 µM.

And the TGI [15]?
Its TGI is 35.2 µM.

What about the TGI [16] of the same compound?
The TGI was 55.9 µM.

And the TGI [17]?
The TGI was 23.7 µM.

And the TGI [18]?
Its TGI is 26 µM.

What about the TGI [19] of the same compound?
The TGI was 52.2 µM.

And the TGI [20]?
Its TGI is 39.9 µM.

What about the TGI [21] of the same compound?
The TGI was 28.1 µM.

And the TGI [22]?
The TGI was 21.1 µM.

And the TGI [23]?
The TGI was 31.7 µM.

And the TGI [24]?
Its TGI is 40 µM.

And the TGI [25]?
Its TGI is 54.8 µM.

What about the TGI [26] of the same compound?
The TGI was 38.3 µM.

What about the TGI [27] of the same compound?
The TGI was 25.4 µM.

What about the TGI [28] of the same compound?
Its TGI is 21.5 µM.

And the TGI [29]?
The TGI was 30 µM.

And the TGI [30]?
The TGI was > 53.1 µM.

What about the TGI [31] of the same compound?
The TGI was 22.7 µM.

What about the TGI [32] of the same compound?
The TGI was 54.1 µM.

And the TGI [33]?
The TGI was 12.4 µM.

What about the TGI [34] of the same compound?
The TGI was 30 µM.

And the TGI [35]?
The TGI was 35.8 µM.

And the TGI [36]?
Its TGI is 31.8 µM.

What about the TGI [37] of the same compound?
Its TGI is 22.5 µM.

And the TGI [38]?
Its TGI is > 100 µM.

What about the TGI [39] of the same compound?
Its TGI is 27.4 µM.

What about the TGI [40] of the same compound?
The TGI was 28.6 µM.

What about the TGI [41] of the same compound?
The TGI was 7.31 µM.

And the TGI [42]?
The TGI was 21.2 µM.

What about the TGI [43] of the same compound?
Its TGI is 53.3 µM.

And the TGI [44]?
The TGI was 9.93 µM.

And the TGI [45]?
Its TGI is 38.5 µM.

And the TGI [46]?
Its TGI is 45.4 µM.

And the TGI [47]?
Its TGI is 47.4 µM.

And the TGI [48]?
Its TGI is 31.8 µM.

And the TGI [49]?
Its TGI is 23.4 µM.

What about the TGI [50] of the same compound?
Its TGI is 25.3 µM.

What about the TGI [51] of the same compound?
Its TGI is 20.3 µM.

And the TGI [52]?
Its TGI is 8.45 µM.

And the TGI [53]?
Its TGI is 40.5 µM.

What about the TGI [54] of the same compound?
Its TGI is 38.4 µM.

And the TGI [55]?
The TGI was > 81.4 µM.

And the TGI [56]?
The TGI was 18.3 µM.

What about the TGI [57] of the same compound?
Its TGI is 21.8 µM.

What about the TGI [58] of the same compound?
Its TGI is 26.6 µM.

What does the source list for `COC(=O)C12C3C4C1C1C2C3C41C(=O)NC(C)(C)CC(=O)O` (stereo not given)?
TGI [1]: > 100 µM; TGI [2]: > 100 µM; TGI [3]: > 100 µM; TGI [5]: > 100 µM; TGI [6]: > 100 µM; TGI [7]: > 100 µM; TGI [8]: > 100 µM; TGI [9]: > 100 µM; TGI [10]: > 100 µM; TGI [11]: > 100 µM; TGI [12]: > 100 µM; TGI [13]: > 100 µM; TGI [14]: > 100 µM; TGI [15]: > 100 µM; TGI [16]: > 100 µM; TGI [17]: > 100 µM; TGI [18]: > 100 µM; TGI [19]: > 100 µM; TGI [20]: > 100 µM; TGI [21]: > 100 µM; TGI [59]: > 100 µM; TGI [22]: > 100 µM; TGI [23]: > 100 µM; TGI [24]: > 100 µM; TGI [26]: > 100 µM; TGI [27]: > 100 µM; TGI [28]: > 100 µM; TGI [29]: > 100 µM; TGI [30]: > 100 µM; TGI [31]: > 100 µM; TGI [32]: > 100 µM; TGI [33]: > 100 µM; TGI [34]: > 100 µM; TGI [35]: > 100 µM; TGI [36]: > 100 µM; TGI [37]: > 100 µM; TGI [38]: > 100 µM; TGI [39]: > 100 µM; TGI [40]: > 100 µM; TGI [41]: > 100 µM; TGI [42]: 61 µM; TGI [43]: > 100 µM; TGI [44]: > 100 µM; TGI [45]: > 100 µM; TGI [46]: > 100 µM; TGI [47]: > 100 µM; TGI [48]: > 100 µM; TGI [49]: > 100 µM; TGI [50]: > 100 µM; TGI [51]: > 100 µM; TGI [52]: > 100 µM; TGI [53]: > 100 µM; TGI [54]: > 100 µM; TGI [55]: > 100 µM; TGI [56]: > 100 µM; TGI [57]: > 100 µM; TGI [58]: > 100 µM
